Measurements taken from patent publication US20240122946A9, “METHODS AND COMPOSITIONS FOR TREATING 25-HYDROXYVITAMIN D DEFICIENCY” (Board of Supervisors of Louisiana State University and …, priority 2019, published 2024).

How the values were obtained:
[1] = tested on: C2C12 myotubes; experiment: LC, TNF-α and 1,25(OH)2VD treatment of myotubes (GCLC-KD, PGC-1α KD); type: cell-based, mouse
Protocol: (§1) Cell culture and treatment: FL83B mouse hepatocytes (ATCC®, Manassas, Va.) were cultured and maintained in F-12K complete medium. Mouse C2C12 myoblasts were cultured at 37° C. in an atmosphere of 5% CO2 in growth medium (GM) consisting of Dulbecco's modified Eagle's medium (DMEM) supplemented with heat-inactivated 10% fetal bovine serum and antibiotics (penicillin and streptomycin). […] The control siRNA, a scrambled nonspecific RNA duplex that shares no sequence homology with any of the genes, was used as a negative control.
(§2) Cells were transiently transfected with 0-100 nM siRNA complex using Lipofectamine™2000 transfection reagent (Invitrogen, Carlsbad, Calif.). […] TNF-α (0-250 μg/mL) was exposed for 6 h to differentiated myotubes.
(§3) Analysis of mRNA expression using quantitative polymerase chain reaction: Total RNA was extracted from cells or tissue using the TRIzol reagent (Life Technologies) following the manufacturer's instructions. The quality and quantity of the extracted RNA were determined on a NanoDrop spectrophotometer (Thermo Scientific). First-strand complementary DNA (cDNA) synthesis was performed using a commercially available High Capacity RNA-To-cDNA kit (Life Technologies) in a final reaction volume of 20 μL. Amplification of cDNA was performed on a 7900HT Real Time polymerase chain reaction (PCR) system (Applied Biosystems). PCR conditions were 2 min at 50° C., 10 min at 95° C., 40 cycles of 95° C. for 15 s, and then 60° C. for 60 s. Glyceraldehyde-3-phosphate dehydrogenase (GAPDH) was used as a housekeeping gene to normalize threshold cycle (CT) values.
(§4) Levels of GSH in plasma, tissues, and cultured cells were determined using HPLC. This assay determines total GSH status. Cell viability was determined using the Alamar Blue method (Alamar Biosciences, Sacramento, Calif.). Oxidative stress was assessed by the quantification of protein carbonyls and MDA using Protein Carbonyl Colorimetric and TBARS Assay Kits, respectively (Cayman Chemical, Ann Arbor, Mich.). Measurements of HbA1c, Complete Blood Count, glucose, and calcium were done at the clinical chemistry laboratories of LSUHSC-Shreveport. Due to limited amount of blood collected from each mouse, we borrowed diluents from the clinical laboratory and diluted the blood before taking it to the clinical laboratory, which reduced the amount of blood required for clinical tests. All chemicals were purchased from Sigma Chemical Co. (St. Louis, Mo.) unless otherwise mentioned.

[2] = tested on: FL83B mouse hepatocytes; experiment: LC and cholecalciferol treatment of hepatocytes (GCLC-KD, VDR-KD); type: cell-based
Protocol: as §1, §2, §3, §4

[3] = tested on: mice maintained on a VD-deficient HFD; experiment: Supplementation of mice on VD-deficient HFD: blood biomarkers; type: in vivo, mouse; conditions: VD 67 IU/kg BW, vs OO (vehicle) control
Protocol: Effect of supplementation with VD along with LC on plasma levels of GSH, 25(OH)VD, and IR, and on GSH and VD regulatory genes in liver and on GSH and glucose metabolism genes in muscle: Beginning at 5 weeks of age, male C57BL/6J mice were fed and maintained on a VD-deficient HFD and water ad libitum for 16 weeks. Mice were gavaged daily for the last 8 weeks with saline, olive oil (OO), LC (5 mg/kg BW), VD (67 IU/kg BW), or LC+VD to investigate whether co-supplementation with GSH precursor has a better effect on blood levels of 25(OH)VD compared with levels achieved using VD alone. VD was dissolved in OO and one group of mice was also gavaged with OO (vehicle) alone.
Animal studies. Male C57BL/6J mice (5 weeks old, 20-24 g) were purchased from The Jackson Laboratory and acclimatized in the institutional animal house for 1 week. Mice were divided into various groups by computer-generated randomization and then housed and labeled in individual cages. They were fasted overnight and then weighed. Blood glucose was assessed by tail prick using an Accu-Chek glucometer (Boehringer Mannheim Corp., Indianapolis, Ind.). BW and blood glucose were monitored weekly. Control animals were fed a normal diet (lower in fat), while animals in the HFD group were fed HFD for 16 weeks. For studies with VD-deficient animals, the mice were maintained on a VD-deficient HFD for 16 weeks.
In addition, two groups of mice maintained on the VD-deficient HFD were also simultaneously supplemented by oral gavage with either water or the same dose of the vehicle used for dissolving cholecalciferol (OO) (FIG. 5). The animals were maintained under standard housing conditions at 22° C. 2° C. with 12/12-h light/dark cycles. Normal diet, HFD, and VD-deficient HFD were purchased from The Jackson Laboratory. The amount of food intake was monitored at 12 and 16 weeks into the treatment period to assess consumption. At the end of 16 weeks, the animals were fasted overnight and then euthanized for analysis by exposure to isoflurane (Webster Veterinary Supply, Inc., Devens, Mass.). Blood was collected via heart puncture with a 19^1/2-gauge needle into heparinized Vacutainer tubes. Plasma was isolated after centrifuging the blood in a 4° C. centrifuge at 3000 rpm for 10 min. The livers were perfused with cold saline to free them of residual blood. Liver and gastrocnemius muscle were collected immediately, weighed, quickly diced, and frozen in liquid nitrogen at −80° C.
Dose justification for LC and vitamin D: While lc can be taken as a supplement, it is also formed in the body from methionine. An adult ingests about 500 mg LC from dietary sources, assuming that an average protein intake is 90 g/day and that LC is about 0.6% of total protein. Similarly, taking into account daily dietary intake and diet composition, mice consume 3-5 mg LC/kg BW. The LC/methionine content of protein varies with the source of the protein. The LC dose used in our studies, 5 mg/kg BW, is theoretically a supplementation onefold to twofold that of the LC ordinarily consumed by the mice, which could be considered both modest and safe. […]
25(OH)VD, 1,25(OH)2VD, VDBP, GSH, TNF-α, PTH, insulin, glucose, protein carbonyl, and MDA assays: Plasma levels of 25(OH) vitamin D were determined using an ELISA kit (Calbiotech, Spring Valley, Calif.) and 1,25(OH)2 vitamin D using another ELISA kit (My BioSource, San Diego, Calif.). Plasma VDBP quantification was carried out using a kit purchased from ALPCO Diagnostics (Salem, N.H.). […]

[4] = oral gavage 8 weeks, LC 5 mg/kg BW
[5] = LC alone, compared with control VDR-KD cells

C=C1/C(=C\C=C2/CCC[C@]3(C)[C@@H]([C@H](C)CCCC(C)(C)O)CC[C@@H]23)C[C@@H](O)C[C@@H]1O [1,25(OH)2VD, 1alpha,25-dihydroxyvitamin D3]
upregulation of NRF2 and GLUT-4 ([1]; PGC-1α KD myotubes): absent

C=C1CC[C@H](O)C/C1=C/C=C1\CCC[C@]2(C)[C@@H]([C@H](C)CCCC(C)C)CC[C@@H]12 [VD, cholecalciferol]
effect on VD regulatory genes (mRNA) ([2]; cholecalciferol 10 nM, 22 h): stimulatory effect
IR (HOMA-IR) in blood [3, 4]: did not show effect
blood HbA1c [3, 4]: did not show effect
blood level of TNF-α [3, 4]: did not show effect
blood level of VDBP ([3]; oral gavage 8 weeks): did not show effect
blood level of GSH ([3]; oral gavage last 8 weeks of 16 weeks VD-deficient HFD, LC 5 mg/kg BW): did not show effect

N[C@@H](CS)C(=O)O [LC, l-cysteine]
CYP27A1 gene upregulation [2, 5]: not
VDBP gene expression [2, 5]: upregulation
oxidation of both proteins and lipids ([2]; LC, GSH-normal and GSH-deficient hepatocytes): reduced
GSH levels ([1]; LC 300 μM, 6 h): increases
TNF-α levels ([1]; LC 300 μM, 6 h, GCLC-normal and GCLC-KD myotubes): decrease

TNF-α
VDR/PGC-1α/GLUT-4 gene expression ([1]; exogenous TNF-α, 6 h): downregulates
